“And” between values parts separate entries of the source, which are not always exact repeats. Equal entries are not always repeated. Where two headings read alike, the source gives them in different places.
Tests used:
CCR1 = target: T1, CCR1 (Homo sapiens, UniProt P32246); assay: β-arrestin selectivity assay, CCR1; format: cell-based
T1 sequence (P32246 1-355): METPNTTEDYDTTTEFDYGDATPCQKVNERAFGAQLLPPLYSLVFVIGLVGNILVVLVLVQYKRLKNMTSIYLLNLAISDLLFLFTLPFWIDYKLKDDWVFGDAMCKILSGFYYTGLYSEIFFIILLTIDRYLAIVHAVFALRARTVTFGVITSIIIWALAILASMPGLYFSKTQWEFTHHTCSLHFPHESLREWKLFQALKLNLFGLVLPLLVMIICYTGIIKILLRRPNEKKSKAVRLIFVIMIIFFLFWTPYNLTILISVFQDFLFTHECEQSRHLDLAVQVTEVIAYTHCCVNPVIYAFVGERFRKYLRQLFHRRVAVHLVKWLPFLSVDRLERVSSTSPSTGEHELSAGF

CCR7 [1] = target: T2, CCR7 (Homo sapiens, UniProt P32248); assay: Ca^2+ mobilization assay, CCR7; format: cell-based; conditions: Ca^2+ mobilization assay, CCR7
T2 construct: expressed in transfected cells
T2 sequence (P32248 25-378): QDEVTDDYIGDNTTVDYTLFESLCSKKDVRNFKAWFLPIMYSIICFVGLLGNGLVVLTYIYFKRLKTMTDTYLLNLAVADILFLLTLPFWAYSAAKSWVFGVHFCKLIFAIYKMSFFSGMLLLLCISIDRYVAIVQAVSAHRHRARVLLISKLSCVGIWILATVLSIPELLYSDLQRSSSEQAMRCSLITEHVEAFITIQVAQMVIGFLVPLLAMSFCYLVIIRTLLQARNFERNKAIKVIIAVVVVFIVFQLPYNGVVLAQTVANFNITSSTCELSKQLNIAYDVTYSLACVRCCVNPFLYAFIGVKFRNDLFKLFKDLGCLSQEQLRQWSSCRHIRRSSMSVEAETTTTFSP
Description: Selected compounds were initially sent for both antagonist and agonist TANGO β-arrestin assays. […] Replacement only on the amide group with CN led to strong activity decrease in β-arrestin assay: only 31% activity at about 30 μM and similar one at 100 μM (Table 1). Five more derivatives with replaced amide group were also tested in parallel by Ca^2+ mobilization assay and they all were not active up to the tested concertation of 100 μM.
To examine the colloid aggregation possibility a β-lactamase enzymatic activity counterscreen assay was performed, which is the commonly adopted tool for detection of such properties of the compounds.

CCR2 = CCR2 (Homo sapiens, UniProt P41597); assay: β-arrestin selectivity assay, CCR2; format: cell-based
CCR3 = target: T3, CCR3 (Homo sapiens, UniProt P51677); assay: β-arrestin selectivity assay, CCR3; format: cell-based
T3 sequence (P51677 1-355): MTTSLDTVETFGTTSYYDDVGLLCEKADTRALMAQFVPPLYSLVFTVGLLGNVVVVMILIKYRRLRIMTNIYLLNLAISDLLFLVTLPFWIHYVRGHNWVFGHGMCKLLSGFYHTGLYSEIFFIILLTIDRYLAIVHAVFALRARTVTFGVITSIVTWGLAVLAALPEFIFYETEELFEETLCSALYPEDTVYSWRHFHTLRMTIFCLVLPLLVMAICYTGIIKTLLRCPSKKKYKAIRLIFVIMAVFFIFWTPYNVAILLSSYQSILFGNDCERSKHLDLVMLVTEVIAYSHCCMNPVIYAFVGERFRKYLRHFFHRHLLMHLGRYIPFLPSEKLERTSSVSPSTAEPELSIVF

CCR5 = CCR5 (Homo sapiens, UniProt P51681); assay: β-arrestin selectivity assay, CCR5; format: cell-based
CXCR4 = CXCR4 (Homo sapiens, UniProt P61073); assay: Ca^2+ mobilization assay, CXCR4; format: cell-based
Description: MIC5023. The synthesis path of MIC5023 is shown on Scheme 1. It consists of 5 chemical transformation in order the final product to be obtained. Two chlorine atoms were added to aromatic rings of MIC5022, and also one methyl group, which makes MIC5023 a close derivative of MIC5022. […] The Ca^2+ mobilization assays retrieved a value of IC50 of about 30 μM and similar for CXCR4; i.e. less than those observed for Hit 1 (MIC5022). MIC5024. The synthesis path of MIC5024 is shown on Scheme 2. It consists of 4 chemical transformation in order the final product to be obtained. The difference between MIC5023 and MIC5024 is only one methyl group introduced in the central five member aromatic ring but it decreased the β-arrestin activity of MIC5024 to CCR1, CCR2 and CCR3 below 30 μM. […] The Ca^2+ mobilization assays retrieved values of IC50>50 μM for CCR7 and CXCR4. Thus, it became evident that this methyl substitution is less sensitive only to CCR3 and CCR5.

CCR7 [2] = target: T2, CCR7; conditions: β-arrestin related assay, CCR7, reference [2]; cited from earlier work

Chain of CCR2 (P41597 whole entry): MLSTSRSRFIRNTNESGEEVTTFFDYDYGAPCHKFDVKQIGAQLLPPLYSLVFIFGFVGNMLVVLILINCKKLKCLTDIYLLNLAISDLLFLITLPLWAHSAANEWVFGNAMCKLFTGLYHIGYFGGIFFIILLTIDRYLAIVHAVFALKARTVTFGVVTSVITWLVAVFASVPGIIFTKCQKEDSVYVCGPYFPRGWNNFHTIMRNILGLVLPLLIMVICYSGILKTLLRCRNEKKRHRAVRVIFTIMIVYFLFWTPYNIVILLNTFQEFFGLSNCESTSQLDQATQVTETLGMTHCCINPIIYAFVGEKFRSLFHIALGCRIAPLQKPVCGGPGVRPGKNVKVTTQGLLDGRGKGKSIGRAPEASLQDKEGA
Chain of CXCR4 (P61073 whole entry): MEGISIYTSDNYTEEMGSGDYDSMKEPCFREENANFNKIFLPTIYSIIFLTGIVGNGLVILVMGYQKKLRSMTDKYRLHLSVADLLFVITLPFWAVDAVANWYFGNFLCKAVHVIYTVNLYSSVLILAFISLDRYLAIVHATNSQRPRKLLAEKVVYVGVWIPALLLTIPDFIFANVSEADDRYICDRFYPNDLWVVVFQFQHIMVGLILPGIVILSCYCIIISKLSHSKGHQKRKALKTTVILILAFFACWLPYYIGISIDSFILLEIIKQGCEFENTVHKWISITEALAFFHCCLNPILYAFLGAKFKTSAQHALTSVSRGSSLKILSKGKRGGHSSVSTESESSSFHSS
Chain of CCR5 (P51681 whole entry): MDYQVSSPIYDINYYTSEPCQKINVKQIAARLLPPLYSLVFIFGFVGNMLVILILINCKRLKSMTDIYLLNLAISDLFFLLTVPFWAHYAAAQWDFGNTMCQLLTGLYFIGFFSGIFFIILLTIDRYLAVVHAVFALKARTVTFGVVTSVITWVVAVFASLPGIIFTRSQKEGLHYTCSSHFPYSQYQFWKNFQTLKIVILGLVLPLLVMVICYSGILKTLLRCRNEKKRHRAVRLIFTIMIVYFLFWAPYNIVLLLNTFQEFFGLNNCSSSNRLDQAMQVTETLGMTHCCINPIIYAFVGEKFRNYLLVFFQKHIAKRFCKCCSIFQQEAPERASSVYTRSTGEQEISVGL

| Compound | IC50 (CCR1) | IC50 (CCR7 [1]) | IC50 (CCR2) | IC50 (CCR3) | IC50 (CCR5) | IC50 (CXCR4) | IC50 (CCR7 [2]) |
| --- | --- | --- | --- | --- | --- | --- | --- |
| Cc1nc(Oc2c(Cl)cccc2C(N)=O)c2c(C)c(-c3ccccc3Cl)sc2n1 [MIC5023, 3-chloro-2-{[6-(2-chlorophenyl)-2,5-dimethylthieno[2,3-d]pyrimidin-4-yl]oxy}benzamide] | > 30 µM | ~30 µM | 31.5 µM | > 9.5 µM | 2.1 µM | ~30 µM |  |
| Cc1nc(Oc2c(Cl)cccc2C(N)=O)c2cc(-c3ccccc3Cl)sc2n1 [MIC5024, 3-chloro-2-{[6-(2-chlorophenyl)-2-methylthieno[2,3-d]pyrimidin-4-yl]oxy}benzamide] | < 30 µM | > 50 µM | < 30 µM | < 30 µM and 7.2 µM | 7.2 µM | > 50 µM |  |
| Cosaline |  |  |  |  |  |  | 0.2 µM |
